Structures can show the parent of a compound that is named as a salt.
What follows are molecules tested against T1, Acid phosphatase (Francisella tularensis subsp. tularensis (strain SCHU S4 / Schu 4), UniProt Q5NIC0) (assay: Inhibitor Screening Assay).
T1 sequence (Q5NIC0 whole entry): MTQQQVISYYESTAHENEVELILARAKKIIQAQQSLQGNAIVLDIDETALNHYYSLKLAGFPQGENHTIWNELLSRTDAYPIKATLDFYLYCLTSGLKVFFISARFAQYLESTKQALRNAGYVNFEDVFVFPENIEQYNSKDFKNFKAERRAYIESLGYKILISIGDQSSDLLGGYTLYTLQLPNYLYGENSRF
Procedure: The inhibitor screening assays were performed in 96-well format with 1152 small molecules found in the Prestwick chemical library (Prestwick Chemical, France).
`COc1ccc(CC2c3cc(OC)c(OC)cc3CC[N+]2(C)CCC(=O)OCCCCCOC(=O)CC[N+]2(C)CCc3cc(OC)c(OC)cc3C2Cc2ccc(OC)c(OC)c2)cc1OC` (stereo not drawn) showed a Ki of 342 µM. Molecule `O=c1c(O)c(-c2cc(O)c(O)c(O)c2)oc2cc(O)cc(O)c12` has a Ki of 154 µM. In the case of `O=c1c(O)c(-c2ccc(O)cc2)oc2cc(O)cc(O)c12`, the Ki is reported as 190 µM. Work on `CCN(CC)CCNC(=O)c1ccc(N)cc1` [4-amino-N-[2-(diethylamino)ethyl]benzamide;hydrochloride] yielded a Ki of 14.8 µM. Work on `CC1(C)OC[C@@H]([C@H]2OC(=O)C(=O)C2O)O1` (stereo partly drawn) [(+)-5,6-O-Isopropylidene-L-ascorbic acid] yielded a Ki of 3.27 µM. Work on `CCCCCCCCCCCCCCCC[N+](C)(C)CCN(Cc1ccc(OC)cc1)c1ncccn1` [SMR001233380] yielded a Ki of 0.59 µM. Work on `OC[C@H](O)c1oc(O)c(O)c1O` [ascorbic acid] yielded a Ki of 380 µM. In the case of `O=C1OC(C(O)CO)=C(O)C1OP(=O)(O)O` [2-phospho-L-ascorbic acid], the Ki is reported as 0.32 µM.
